This is an account of results in patent US6875891B2, “Process for preparing highly water soluble double salts of hydroxycitric acid particularly alkali and alkaline earth metal double salts” (Laila Impex, priority 2003, dated 2005).

The conditions of series [1]: background statement on known salts; cited from earlier work.
For series [2] the following is noted: background statement; cited from earlier work.
The nature of series [3]: equilibration between free acid form and lactone form when dissolved in water. It counts as physicochemical.

`O=C([O-])C[C@@](O)(C(=O)[O-])[C@H](O)C(=O)[O-].O=C([O-])C[C@@](O)(C(=O)[O-])[C@H](O)C(=O)[O-].[Ca+2].[Ca+2].[Ca+2]` [calcium salt, calcium salt of hydroxycitric acid]: in series [1], the solubility in water entry was “poorly soluble in water”.
As for `O=C([O-])C[C@@](O)(C(=O)[O-])[C@H](O)C(=O)[O-].[K+].[K+].[K+]` [tripotassium salt], in series [2], the hygroscopicity result is “highly hygroscopic”.
“calcium/potassium double salt of hydroxycitric acid [Ca/K double salt]”: the “equilibration between free form and lactone form of hydroxycitric acid” value in series [3] is “does not equilibrate between the free form and the lactone form”.
